Results: US10800791B2, “Triazole ACC inhibitors and uses thereof” (Gilead Apollo, LLC, priority 2015, dated 2020)
≈ marks a conversion by molar mass, not a printed value. Read-outs that look alike come from different tables or passages of the source.

Columns and labels:
[1] = target: human (hACC2) (Homo sapiens, UniProt O00763); assay: In vitro ACC inhibition assay (ADP-Glo), hACC2; assay type: biochemical; settings: 5 nM ACC2, 20 μM ATP, 20 μM acetyl-CoA
Protocol: The detailed procedure is as follows. […] 10 μL ADP glo reagent was added. […] 20 μL kinase detection reagent was added.

[2] = target: fungal (fACC2) (UniProt Q00955); settings: read-out: fACC2 (in vitro ACC2 Inhibition Assay, IC50), ADP-Glo, 5 nM ACC2, 20 μM ATP, 20 μM acetyl-CoA
fungal (fACC2), sequence (Q00955 whole entry): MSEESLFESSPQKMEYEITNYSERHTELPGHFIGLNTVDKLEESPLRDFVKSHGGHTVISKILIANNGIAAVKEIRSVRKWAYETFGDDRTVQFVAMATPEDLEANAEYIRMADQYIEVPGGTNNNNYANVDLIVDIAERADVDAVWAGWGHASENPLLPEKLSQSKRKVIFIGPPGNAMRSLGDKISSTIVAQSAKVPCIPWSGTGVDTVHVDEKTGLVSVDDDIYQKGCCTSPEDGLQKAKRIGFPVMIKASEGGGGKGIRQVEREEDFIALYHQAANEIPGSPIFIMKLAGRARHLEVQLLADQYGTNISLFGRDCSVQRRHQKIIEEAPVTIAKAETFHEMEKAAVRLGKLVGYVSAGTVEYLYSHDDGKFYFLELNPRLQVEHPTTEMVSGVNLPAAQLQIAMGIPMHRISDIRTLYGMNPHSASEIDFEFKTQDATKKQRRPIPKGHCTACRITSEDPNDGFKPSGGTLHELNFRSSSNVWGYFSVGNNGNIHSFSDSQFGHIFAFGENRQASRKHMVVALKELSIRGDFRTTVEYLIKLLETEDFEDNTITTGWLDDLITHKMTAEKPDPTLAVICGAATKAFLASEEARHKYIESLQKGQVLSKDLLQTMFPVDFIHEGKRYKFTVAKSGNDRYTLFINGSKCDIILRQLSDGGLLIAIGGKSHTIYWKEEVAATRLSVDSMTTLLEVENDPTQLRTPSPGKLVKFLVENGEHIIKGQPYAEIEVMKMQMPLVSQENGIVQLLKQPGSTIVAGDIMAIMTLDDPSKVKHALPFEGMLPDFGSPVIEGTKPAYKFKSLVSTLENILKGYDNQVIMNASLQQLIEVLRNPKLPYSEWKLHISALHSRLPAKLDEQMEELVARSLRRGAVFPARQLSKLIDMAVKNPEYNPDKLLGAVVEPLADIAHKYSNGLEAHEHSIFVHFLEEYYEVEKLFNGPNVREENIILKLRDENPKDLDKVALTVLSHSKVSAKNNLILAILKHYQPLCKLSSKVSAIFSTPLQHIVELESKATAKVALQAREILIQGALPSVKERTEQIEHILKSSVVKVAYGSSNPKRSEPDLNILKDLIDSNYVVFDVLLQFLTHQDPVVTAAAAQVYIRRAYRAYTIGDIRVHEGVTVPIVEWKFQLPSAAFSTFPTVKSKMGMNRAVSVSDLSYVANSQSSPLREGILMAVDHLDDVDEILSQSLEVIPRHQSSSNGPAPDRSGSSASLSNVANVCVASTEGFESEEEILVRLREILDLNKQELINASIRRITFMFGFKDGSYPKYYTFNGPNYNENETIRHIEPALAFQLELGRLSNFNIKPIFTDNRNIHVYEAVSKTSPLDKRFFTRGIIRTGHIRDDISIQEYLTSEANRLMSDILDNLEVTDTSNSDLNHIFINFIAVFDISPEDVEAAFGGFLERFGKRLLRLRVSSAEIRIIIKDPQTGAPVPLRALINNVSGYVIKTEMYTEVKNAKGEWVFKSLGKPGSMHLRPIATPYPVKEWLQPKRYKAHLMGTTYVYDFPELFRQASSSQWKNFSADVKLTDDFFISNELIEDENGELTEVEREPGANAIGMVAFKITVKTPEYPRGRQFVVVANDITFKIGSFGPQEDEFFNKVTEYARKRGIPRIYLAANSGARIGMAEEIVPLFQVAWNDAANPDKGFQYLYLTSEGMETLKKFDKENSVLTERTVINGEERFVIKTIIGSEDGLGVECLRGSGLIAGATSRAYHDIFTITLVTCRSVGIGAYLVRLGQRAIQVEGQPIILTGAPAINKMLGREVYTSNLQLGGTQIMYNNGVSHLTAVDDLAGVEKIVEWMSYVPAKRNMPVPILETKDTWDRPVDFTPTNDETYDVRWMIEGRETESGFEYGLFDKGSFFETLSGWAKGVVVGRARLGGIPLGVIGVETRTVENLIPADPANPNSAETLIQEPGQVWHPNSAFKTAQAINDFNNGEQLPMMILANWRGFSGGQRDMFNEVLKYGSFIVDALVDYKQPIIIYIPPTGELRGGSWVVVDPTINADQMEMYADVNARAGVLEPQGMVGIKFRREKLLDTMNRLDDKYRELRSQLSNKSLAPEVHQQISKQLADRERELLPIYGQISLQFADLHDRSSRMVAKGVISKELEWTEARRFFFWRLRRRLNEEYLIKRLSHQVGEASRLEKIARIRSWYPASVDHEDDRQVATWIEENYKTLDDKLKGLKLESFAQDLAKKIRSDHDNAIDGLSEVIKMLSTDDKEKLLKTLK

[3] = test system: C. albicans; assay: Antifungal Activity Assay (broth microtiter MIC), C. albicans; assay type: cell-based, Candida albicans; settings: for MIC: Candida albicans, ATCC90028, 48 h
Protocol: (§1) Compounds of the present invention were evaluated in an Antifungal Activity Assay. An exemplary procedure for the assay, which measures the susceptibility of various Candida species to antifungal compounds, follows. Compounds to be tested (including fluconazole and amphotericin B) were dissolved in DMSO to obtain a solution having a concentration of 1 mg/mL. These stock solutions were sterile filtered using a 0.22 um nylon syringe filter, then diluted in sterile water to achieve a final concentration of 128 μg/mL.
(§2) All species were grown from frozen stock by directly plating on to freshly prepared Sabouraud Dextrose agar (BD, Difco) and incubated overnight in ambient air at 35° C. for 24 h. A direct suspension was prepared in RPMI 1640+MOPS (Lonza, Biowhittaker) by taking individual colonies from the overnight cultures using sterile swabs soaked in sterile saline. The concentration of the suspension was determined using pre-determined standard curves. These suspensions were then diluted down to 5×10^3 CFU/mL to achieve a final concentration of 2.5×10^3 CFU/mL once added to the microtiter plate as per CLSI guidelines (M27-A3, Vol. 28 No. 14).
(§3) Broth microtiter MIC challenge plates were prepared following CLSI guidelines (M27-A3, Vol. 28 No. 14). The original CLSI guidelines focused on reading Candida MICs after 48 h of incubation. As reading after only 24 h offers a clear advantage of patient care, QC limits are being established for all drugs at 24 h. That being said there are no known interpretive breakpoints for amphotericin B at 24 h and the current fluconazole interpretive breakpoints are based on a 48 h reading. The MICs for the test compounds were recorded at 48 h. All MIC determinations were achieved by visually comparing the growth found in the antibiotic challenged wells to that of the growth control.

[4] = test system: C. krusei; assay: Antifungal Activity Assay (broth microtiter MIC), C. krusei; assay type: cell-based, Candida krusei; settings: for MIC: Pichia kudriavzevii, ATCC6258, 48 h
Protocol: as §1, §2, §3

[5] = test system: C. parapsilosis; assay: Antifungal Activity Assay (broth microtiter MIC), C. parapsilosis; assay type: cell-based, Candida parapsilosis; settings: for MIC: Lodderomyces parapsilosis, ATCC22019, 48 h
Protocol: as §1, §2, §3

[6] = Table 3a, ATCC 90028, 3 replicates, MIC recorded at 48 h, read-out: MIC, C. albicans ATCC 90028
[7] = Table 3b (additional results), ATCC 90028, 3 replicates, MIC recorded at 48 h, read-out: MIC, C. albicans ATCC 90028
[8] = Table 3a, ATCC 6258, 3 replicates, MIC recorded at 48 h, read-out: MIC, C. krusei ATCC 6258
[9] = Table 3b (additional results), ATCC 6258, 3 replicates, MIC recorded at 48 h, read-out: MIC, C. krusei ATCC 6258
[10] = Table 3a, ATCC 22019, 3 replicates, MIC recorded at 48 h, read-out: MIC, C. parapsilosis ATCC 22019
[11] = Table 3b (additional results), ATCC 22019, 3 replicates, MIC recorded at 48 h, read-out: MIC, C. parapsilosis ATCC 22019
[12] = Table 3a, 3 replicates, MIC recorded at 48 h
[13] = read-out: MIC, C. albicans ATCC 90028, Table 3b (additional results), 3 replicates, MIC recorded at 48 h
[14] = read-out: MIC, C. krusei ATCC 6258, Table 3b (additional results), 3 replicates, MIC recorded at 48 h
[15] = read-out: MIC, C. parapsilosis ATCC 22019, Table 3b (additional results), 3 replicates, MIC recorded at 48 h

human (hACC2), sequence (O00763 whole entry): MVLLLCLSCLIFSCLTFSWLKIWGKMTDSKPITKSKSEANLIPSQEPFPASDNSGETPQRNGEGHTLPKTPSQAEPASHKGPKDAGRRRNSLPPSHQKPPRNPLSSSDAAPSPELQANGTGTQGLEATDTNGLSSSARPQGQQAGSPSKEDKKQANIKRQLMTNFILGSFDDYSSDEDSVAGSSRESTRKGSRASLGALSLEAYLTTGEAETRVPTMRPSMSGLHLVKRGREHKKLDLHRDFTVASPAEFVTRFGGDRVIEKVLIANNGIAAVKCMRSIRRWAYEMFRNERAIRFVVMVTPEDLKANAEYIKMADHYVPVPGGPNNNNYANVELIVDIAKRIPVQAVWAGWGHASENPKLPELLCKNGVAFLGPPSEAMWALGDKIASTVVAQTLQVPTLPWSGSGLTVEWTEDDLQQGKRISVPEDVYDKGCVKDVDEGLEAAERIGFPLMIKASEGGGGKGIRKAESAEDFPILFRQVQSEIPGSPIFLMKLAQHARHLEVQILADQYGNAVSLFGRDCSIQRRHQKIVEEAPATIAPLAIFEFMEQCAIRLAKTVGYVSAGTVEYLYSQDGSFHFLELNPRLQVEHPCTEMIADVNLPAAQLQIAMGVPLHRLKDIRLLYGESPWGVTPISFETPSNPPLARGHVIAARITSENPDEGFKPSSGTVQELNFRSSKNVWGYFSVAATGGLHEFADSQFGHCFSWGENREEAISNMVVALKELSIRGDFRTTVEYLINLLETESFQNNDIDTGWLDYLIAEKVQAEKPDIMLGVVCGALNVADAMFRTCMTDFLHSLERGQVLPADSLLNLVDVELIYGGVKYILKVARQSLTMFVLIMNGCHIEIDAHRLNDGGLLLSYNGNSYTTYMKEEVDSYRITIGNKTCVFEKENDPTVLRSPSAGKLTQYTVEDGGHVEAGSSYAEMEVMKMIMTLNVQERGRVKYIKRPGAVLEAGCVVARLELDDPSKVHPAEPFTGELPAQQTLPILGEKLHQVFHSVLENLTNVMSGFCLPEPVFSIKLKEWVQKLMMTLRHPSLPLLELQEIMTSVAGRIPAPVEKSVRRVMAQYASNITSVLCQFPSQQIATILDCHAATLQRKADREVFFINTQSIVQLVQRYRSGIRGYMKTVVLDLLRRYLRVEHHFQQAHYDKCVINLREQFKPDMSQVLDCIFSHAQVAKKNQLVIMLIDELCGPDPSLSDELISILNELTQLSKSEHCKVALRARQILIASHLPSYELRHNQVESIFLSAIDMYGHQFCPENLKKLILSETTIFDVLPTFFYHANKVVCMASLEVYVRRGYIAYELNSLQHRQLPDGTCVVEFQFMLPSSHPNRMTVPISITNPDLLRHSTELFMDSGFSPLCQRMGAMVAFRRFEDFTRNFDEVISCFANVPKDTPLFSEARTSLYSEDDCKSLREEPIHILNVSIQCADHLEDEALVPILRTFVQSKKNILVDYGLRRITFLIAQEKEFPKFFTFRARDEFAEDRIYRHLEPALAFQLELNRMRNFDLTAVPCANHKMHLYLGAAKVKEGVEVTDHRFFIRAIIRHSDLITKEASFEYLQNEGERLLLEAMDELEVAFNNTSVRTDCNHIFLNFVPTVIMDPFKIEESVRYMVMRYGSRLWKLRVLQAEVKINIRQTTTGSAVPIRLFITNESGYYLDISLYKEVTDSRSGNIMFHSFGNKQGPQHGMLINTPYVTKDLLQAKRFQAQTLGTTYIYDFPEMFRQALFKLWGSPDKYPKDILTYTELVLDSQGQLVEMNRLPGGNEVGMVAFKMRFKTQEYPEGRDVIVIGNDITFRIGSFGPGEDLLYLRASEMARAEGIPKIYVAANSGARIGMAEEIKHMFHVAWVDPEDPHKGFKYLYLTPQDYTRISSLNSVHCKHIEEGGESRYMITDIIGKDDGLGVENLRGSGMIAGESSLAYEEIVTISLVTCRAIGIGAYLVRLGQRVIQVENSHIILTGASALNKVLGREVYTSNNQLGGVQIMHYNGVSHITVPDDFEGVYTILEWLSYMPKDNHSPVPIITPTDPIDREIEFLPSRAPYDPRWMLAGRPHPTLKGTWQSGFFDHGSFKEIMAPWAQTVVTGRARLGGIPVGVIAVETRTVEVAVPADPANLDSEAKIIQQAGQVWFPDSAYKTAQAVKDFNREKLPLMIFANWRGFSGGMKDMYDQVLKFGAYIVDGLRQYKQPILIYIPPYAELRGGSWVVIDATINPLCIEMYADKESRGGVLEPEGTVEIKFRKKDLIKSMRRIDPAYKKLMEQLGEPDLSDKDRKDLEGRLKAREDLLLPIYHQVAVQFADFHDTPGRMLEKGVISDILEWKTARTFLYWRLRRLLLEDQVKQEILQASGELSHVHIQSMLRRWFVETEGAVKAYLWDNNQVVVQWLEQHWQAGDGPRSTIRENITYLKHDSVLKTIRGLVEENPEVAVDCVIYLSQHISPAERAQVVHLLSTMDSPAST

Row | MIC [4, 9] | SMILES | IC50 ([1]; Table 2a) | IC50 ([1]; Table 2b, additional results) | IC50 ([2]; Table 2a) | IC50 ([2]; Table 2b, additional results) | MIC [3, 6] | MIC [3, 7] | MIC [4, 8] | MIC [5, 10] | MIC [5, 11] | MIC, C. albicans ATCC 90028 [3, 12] | MIC, C. krusei ATCC 6258 [4, 12] | MIC, C. krusei ATCC 6258 ([4]; Table 3b (additional results), 3 replicates, MIC recorded at 48 h) | MIC, C. parapsilosis ATCC 22019 [5, 12] | MIC [3, 13] | MIC [4, 14] | MIC [5, 15]
1 |  | COCCO[C@@H](Cn1c(=O)n(C(C)(C)C(=O)NC2CCC2)c(=O)c2c(C)c(-n3nccn3)sc21)c1cc(F)ccc1OC [Compound I-100] | 1 to 5 nM | 1 to 5 nM | 1 to 5 nM | 1 to 5 nM |  | 2.01 to 4 mg/L (≈ 3.27 to 6.51 µM) |  |  | 0.25 to 1 mg/L (≈ 0.407 to 1.63 µM) | A (MIC of 0.25-1.0 μg/mL) | AA (MIC of 0.06-0.24 μg/mL) | A (MIC of 0.25-1.0 μg/mL) | A (MIC of 0.25-1.0 μg/mL) |  |  | 
2 | 2.01 to 4 mg/L (≈ 3.34 to 6.64 µM) | COc1ccc(F)cc1[C@H](Cn1c(=O)n(C(C)C(=O)NC(C)C)c(=O)c2c(C)c(-n3nccn3)sc21)OCC(C)(C)O (some centres unmarked) [Compound I-132] |  |  |  |  | 0.25 to 1 mg/L (≈ 0.415 to 1.66 µM) | 1.01 to 2 mg/L (≈ 1.68 to 3.32 µM) | 0.25 to 1 mg/L (≈ 0.415 to 1.66 µM) | 0.25 to 1 mg/L (≈ 0.415 to 1.66 µM) | 1.01 to 2 mg/L (≈ 1.68 to 3.32 µM) |  |  |  |  |  |  | 
3 |  | COc1ccc(F)cc1[C@H](Cn1c(=O)n(C(C)(C)C(=O)NC(C)C)c(=O)c2c(C)c(-n3nccn3)sc21)OC(C)(C)C(C)=O [Compound I-178] | 10 to 40 nM | 10 to 40 nM |  |  |  |  |  |  |  |  |  |  |  | 0.25 to 1 mg/L (≈ 0.398 to 1.59 µM) | 0.25 to 1 mg/L (≈ 0.398 to 1.59 µM) | 0.25 to 1 mg/L (≈ 0.398 to 1.59 µM)
4 | > 4.01 mg/L | COc1ccccc1[C@@H](O)Cn1c(=O)n(C(C)(C)C(=O)OCc2ccccc2)c(=O)c2c(C)c(-n3nccn3)sc21 [Compound I-179] | > 40 nM | > 40 nM |  |  |  | > 4.01 mg/L |  |  | 2.01 to 4 mg/L (≈ 3.49 to 6.95 µM) |  |  |  |  |  |  | 
5 | > 4.01 mg/L | COc1ccc(F)cc1[C@H](Cn1c(=O)n(C(C)(C)C(=O)N2CC=CC2)c(=O)c2c(C)c(-n3nccn3)sc21)OCC(C)=O [Compound I-190] |  | 5 to 10 nM |  |  |  | > 4.01 mg/L |  |  | 2.01 to 4 mg/L (≈ 3.29 to 6.55 µM) |  |  |  |  |  |  | 
6 |  | Cc1c(-n2nccn2)sc2c1c(=O)n(C(C)(C)C(=O)NC(C)C)c(=O)n2C[C@H](O)c1cc(F)ccc1OCC#N [Compound I-199] |  | 5 to 10 nM |  |  |  |  |  |  |  |  |  |  |  | 2.01 to 4 mg/L (≈ 3.53 to 7.02 µM) | 2.01 to 4 mg/L (≈ 3.53 to 7.02 µM) | 1.01 to 2 mg/L (≈ 1.77 to 3.51 µM)
7 | 2.01 to 4 mg/L (≈ 3.34 to 6.64 µM) | Cc1c(-n2nccn2)sc2c1c(=O)n(C(C)(C)C(=O)NC(C)C)c(=O)n2C[C@H](OCC(C)(C)O)c1cc(F)ccc1O [Compound I-236] |  | 10 to 40 nM |  |  |  | 1.01 to 2 mg/L (≈ 1.68 to 3.32 µM) |  |  | 2.01 to 4 mg/L (≈ 3.34 to 6.64 µM) |  |  |  |  |  |  | 

Row | SMILES | MIC [4, 9] | IC50 ([1]; Table 2a) | IC50 ([1]; Table 2b, additional results) | IC50 ([2]; Table 2a) | IC50 ([2]; Table 2b, additional results) | MIC [3, 6] | MIC [3, 7] | MIC [4, 8] | MIC [5, 10] | MIC [5, 11] | MIC, C. albicans ATCC 90028 [3, 12] | MIC, C. krusei ATCC 6258 [4, 12] | MIC, C. krusei ATCC 6258 ([4]; Table 3b (additional results), 3 replicates, MIC recorded at 48 h) | MIC, C. parapsilosis ATCC 22019 [5, 12] | MIC [3, 13] | MIC [4, 14] | MIC [5, 15]
8 | COc1ccc(F)cc1[C@H](Cn1c(=O)n(C(C)(C)C(=O)N2CCCC2)c(=O)c2c(C)c(-n3nccn3)sc21)OCC(C)=O [Compound I-98] | 2.01 to 4 mg/L (≈ 3.28 to 6.53 µM) | 5 to 10 nM | 5 to 10 nM | 1 to 5 nM | 1 to 5 nM | 2.1 to 4 mg/L (≈ 3.43 to 6.53 µM) | 1.01 to 2 mg/L (≈ 1.65 to 3.26 µM) | 0.25 to 1 mg/L (≈ 0.408 to 1.63 µM) | 2.1 to 4 mg/L (≈ 3.43 to 6.53 µM) | 1.01 to 2 mg/L (≈ 1.65 to 3.26 µM) |  |  |  |  |  |  | 
9 | COc1ccc(F)cc1[C@H](Cn1c(=O)n(C(C)(C)C(=O)NC2CCCCC2)c(=O)c2c(C)c(-n3nccn3)sc21)OCC(C)=O [Compound I-99] | 0.25 to 1 mg/L (≈ 0.39 to 1.56 µM) | 1 to 5 nM | 1 to 5 nM | 1 to 5 nM | 1 to 5 nM | 0.25 to 1 mg/L (≈ 0.39 to 1.56 µM) | 1.01 to 2 mg/L (≈ 1.58 to 3.12 µM) | 0.06 to 0.24 mg/L (≈ 0.0936 to 0.375 µM) | 0.25 to 1 mg/L (≈ 0.39 to 1.56 µM) | 0.25 to 1 mg/L (≈ 0.39 to 1.56 µM) |  |  |  |  |  |  | 
10 | COc1ccccc1[C@H](Cn1c(=O)n(C(C)(C)C(=O)N2CC=CC2)c(=O)c2c(C)c(-n3nccn3)sc21)OC1CCOCC1 [Compound I-101] | 1.01 to 2 mg/L (≈ 1.63 to 3.22 µM) | 5 to 10 nM | 5 to 10 nM | 1 to 5 nM | 1 to 5 nM | 0.25 to 1 mg/L (≈ 0.403 to 1.61 µM) | 1.01 to 2 mg/L (≈ 1.63 to 3.22 µM) | 0.25 to 1 mg/L (≈ 0.403 to 1.61 µM) | 0.25 to 1 mg/L (≈ 0.403 to 1.61 µM) | 1.01 to 2 mg/L (≈ 1.63 to 3.22 µM) |  |  |  |  |  |  | 
